This note sets out measurements from US20140073639A1 (priority 2012, published 2014).

For orientation: inhibition means the change of the read-out against control, counted positive when it falls.

Assay [1] concerns B. Anthracis. Briefly: microbe, parasite or virus in culture. In kind it is cell-based. Particulars: for inhibition at 10 µM / inhibition at 30 µM / inhibition at 3 µM: Bacillus anthracis; for inhibition at 10 µM: read-out: B. Anthracis 10 μM (growth inhibition); for inhibition at 30 µM: read-out: B. Anthracis 30 μM (growth inhibition); for inhibition at 3 µM: read-out: B. Anthracis 3 μM (growth inhibition).

In assay [2] the test system is S. MRSA. The assay is described as follows: microbe, parasite or virus in culture. In kind it is cell-based. The note with it: for inhibition at 10 µM / inhibition at 30 µM / inhibition at 3 µM: Staphylococcus aureus, MRSA; for inhibition at 10 µM: read-out: S. MRSA 10 μM (growth inhibition); for inhibition at 30 µM: read-out: S. MRSA 30 μM (growth inhibition); for inhibition at 3 µM: read-out: S. MRSA 3 μM (growth inhibition).

As for `O=C1NC(=S)NC(=O)C1=Cc1ccc(Br)s1` [Cmpd 1], in assay [1], the inhibition at 10 µM is -12.4% and the inhibition at 30 µM came out at 8.74%. Also, in assay [2], the inhibition at 10 µM was 6.62% and the inhibition at 30 µM is 22.1%.
For `O=C1NC(=S)S/C1=C/c1ccc(-c2ccc3c(c2)C(=O)NC3=O)o1` [Cmpd 3], in that order: 13.7%, 87.5%, -0.59% and 61.2%.
With `O=C(O)CCCCCN1C(=O)/C(=C2/C(=O)Nc3ccc(Br)cc32)SC1=S` [Cmpd 4], the inhibition at 10 µM stood at 52.3% in assay [1] and 41.6% in assay [2]. The inhibition at 30 µM came out at 91.2% in assay [1] and 69.4% in assay [2].
Take `CC(C)C(C(=O)O)N1C(=O)/C(=C2/C(=O)Nc3ccccc32)SC1=S` (centres unmarked) [Cmpd 5]: in assay [1], the “B. Anthracis 10 μM (growth inhibition)” value is listed as −1.33 and the inhibition at 30 µM is 11.2%. In addition, in assay [2], the inhibition at 10 µM came out at 15.9% and the inhibition at 30 µM is 40.6%.
For the compound `O=C1Nc2ccccc2/C1=C1/SC(=S)N(C(Cc2ccccc2)C(=O)O)C1=O` (centres unmarked) [Cmpd 6], in assay [1], the inhibition at 10 µM came to 19.6% and the inhibition at 30 µM was 92.6%. In addition, in assay [2], the inhibition at 10 µM came to 45.7% and the inhibition at 30 µM was found to be 47.8%.
The matching figures for `COc1ccc(-c2nnc(-c3ccccc3)o2)cc1S(=O)(=O)Nc1cc2c(cc1C#N)OCO2` [Cmpd 7]: 19.6%, 74.9%, -7.79% and -1.62%.
Take `COc1ccc(-c2nc(N3CCOCC3)c3sc(=O)n(-c4ccccc4)c3n2)cc1OC` [Cmpd 8]: in assay [1], the inhibition at 10 µM is 5.32% and the inhibition at 30 µM is 35.5%. Further, in assay [2], the inhibition at 10 µM was -8.82% and the inhibition at 30 µM was 1.47%.
For `O=C1NC(=S)NC(=O)C1=Cc1ccc(-c2ccc(Br)c(Cl)c2)o1` [Cmpd 9], the inhibition at 10 µM in assay [1] was 28%; in assay [2] it was 19%. Further, the inhibition at 30 µM in assay [1] is 88.4%; in assay [2], -4.22%.
`O=C1NC(=O)N(Cc2ccc(F)cc2)C(=O)/C1=C/c1ccc(Br)s1` [Cmpd 10]: in assay [1], the inhibition at 10 µM came out at 10.3% and the inhibition at 30 µM was found to be 68.2%. For the same compound, in assay [2], the inhibition at 10 µM was determined as 14.8% and the inhibition at 30 µM was 62.2%.
As for `COc1ccc(N2C(=O)/C(=C/c3ccc(Br)s3)C(=O)NC2=S)cc1` [Cmpd 11], in assay [1], the inhibition at 10 µM is 16.2% and the inhibition at 30 µM stood at 47.3%. In assay [2], the inhibition at 10 µM came out at 14.8% and the inhibition at 30 µM was found to be 42.6%.
Regarding `O=C1Nc2ccc(Br)cc2/C1=C1/SC(=S)N(C(Cc2ccccc2)C(=O)O)C1=O` (centres unmarked) [Cmpd 13], in assay [1], the “B. Anthracis 10 μM (growth inhibition)” value was determined as 10.27 and the inhibition at 30 µM stood at 90.1%. In assay [2], the “S. MRSA 10 μM (growth inhibition)” value is given as −0.58 and the “S. MRSA 30 μM (growth inhibition)” value worked out at 30.29.
Turning to `O=C1NC(=S)NC(=O)C1=Cc1ccc(-c2cccc(Cl)c2)o1` [Cmpd 14], the inhibition at 10 µM stood at 3.62% in assay [1] and 7.65% in assay [2]. Moreover, the inhibition at 30 µM is 27.2% in assay [1] and 47.8% in assay [2].
Turning to `O=C1NC(=S)NC(=O)C1=Cc1ccc(-c2ccc(Cl)cc2)o1` [Cmpd 15], in assay [1], the inhibition at 10 µM came to 3.62% and the inhibition at 30 µM is 42.2%. Also, in assay [2], the inhibition at 10 µM was determined as 20% and the inhibition at 30 µM stood at 63.2%.
As to `O=C1NC(=S)NC(=O)C1=Cc1ccc(Br)cc1` [Cmpd 16], in assay [1], the inhibition at 3 µM was determined as 0%, the inhibition at 10 µM was determined as 0% and the inhibition at 30 µM was found to be 0%. Besides, in assay [2], the inhibition at 3 µM stood at 13.6%, the inhibition at 10 µM stood at 12% and the inhibition at 30 µM came to 8.76%.
For `CC(C)C(C(=O)O)N1C(=O)/C(=C2/C(=O)Nc3ccccc32)SC1=S` (centres unmarked) [Cmpd 17], in assay [1], the “B. Anthracis 10 μM (growth inhibition)” value is on record as −2.28 and the “B. Anthracis 30 μM (growth inhibition)” value turned out to be 7.03. Besides, in assay [2], the “S. MRSA 10 μM (growth inhibition)” value stood at 14.85 and the “S. MRSA 30 μM (growth inhibition)” value was 46.76.
For the compound `O=C1NC(=O)C(=Cc2ccc(Br)s2)C(=O)N1` [Cmpd 18], in assay [1], the inhibition at 3 µM was determined as 0%, the inhibition at 10 µM worked out at 0% and the inhibition at 30 µM turned out to be 0%. Also, in assay [2], the inhibition at 3 µM amounted to 13.6%, the inhibition at 10 µM came to 15.2% and the inhibition at 30 µM was 18.4%.
Turning to `O=C1NC(=O)C(=Cc2ccc(Br)o2)C(=O)N1` [Cmpd 19], in assay [1], the inhibition at 3 µM stood at 3.33%, the inhibition at 10 µM amounted to 10.7% and the inhibition at 30 µM stood at 12.9%. In addition, in assay [2], the inhibition at 3 µM was -1.4%, the inhibition at 10 µM amounted to 2% and the inhibition at 30 µM is 12.6%.
`O=C1NC(=S)NC(=O)C1=Cc1ccc(-c2ccc(F)cc2)o1` [Cmpd 20]: in assay [1], the inhibition at 10 µM came to 17.1% and the inhibition at 30 µM was found to be 28.7%. Also, in assay [2], the inhibition at 10 µM is 25.1% and the inhibition at 30 µM was 56%.
In the case of `O=C(O)CC(C(=O)O)N1C(=O)/C(=C2/C(=O)Nc3ccc(Br)cc32)SC1=S` (centres unmarked) [Cmpd 21], in assay [1], the inhibition at 3 µM stood at 15.8%, the inhibition at 10 µM stood at 13.1% and the inhibition at 30 µM came out at 14.2%. Also, in assay [2], the inhibition at 3 µM is -6.99%, the inhibition at 10 µM was -2.11% and the inhibition at 30 µM is -2.11%.
`O=C1Nc2ccc(Br)cc2/C1=C1/SC(=S)N(C(Cc2ccccc2)C(=O)O)C1=O` (centres unmarked) [Cmpd 22]: in assay [1], the “B. Anthracis 10 μM (growth inhibition)” value is 83.27 and the “B. Anthracis 30 μM (growth inhibition)” value amounted to 90.11. Further, in assay [2], the “S. MRSA 10 μM (growth inhibition)” value stood at 10.74 and the “S. MRSA 30 μM (growth inhibition)” value turned out to be 86.76.
As to `CN1C(=O)C(Cc2ccc(-c3ccc(Cl)c(Cl)c3)o2)C(=O)N(C)C1=O` [Cmpd 23], in assay [1], the inhibition at 3 µM is -8.49%, the inhibition at 10 µM came out at 1.54% and the inhibition at 30 µM worked out at 10.7%. Besides, in assay [2], the inhibition at 3 µM was -8.09%, the inhibition at 10 µM is -7.35% and the inhibition at 30 µM was found to be 0%.
Turning to `CCc1ccccc1N1C(=O)/C(=C/c2ccc(-c3cc(C(=O)O)ccc3Cl)o2)C(=O)NC1=S` [Cmpd 24], in assay [1], the inhibition at 3 µM is -10.8%, the inhibition at 10 µM is -4.63% and the inhibition at 30 µM is -10.8%. In addition, in assay [2], the inhibition at 3 µM was -2.94%, the inhibition at 10 µM amounted to 2.2% and the inhibition at 30 µM is -5.88%.
Consider `O=C1NC(=S)N(c2cccc(Cl)c2)C(=O)/C1=C/c1ccc(-c2cc(C(=O)O)ccc2Cl)o1` [Cmpd 25], for which, in assay [1], the inhibition at 3 µM is -10.8%, the inhibition at 10 µM was -3.09% and the inhibition at 30 µM was -3.09%. Also, in assay [2], the inhibition at 3 µM is -2.21%, the inhibition at 10 µM was -4.41% and the inhibition at 30 µM was -5.15%.
As to `O=C1NC(=S)N(c2ccc(Cl)cc2)C(=O)/C1=C/c1ccc(-c2ccccc2C(=O)O)o1` [Cmpd 26], in assay [1], the inhibition at 3 µM is 2.32%, the inhibition at 10 µM worked out at 97% and the inhibition at 30 µM worked out at 100%. In assay [2], the inhibition at 3 µM was found to be 1.47%, the inhibition at 10 µM was 16.1% and the inhibition at 30 µM worked out at 92.4%.
Turning to `CCOc1cccc(N2C(=O)/C(=C/c3ccc(-c4cc(C(=O)O)ccc4Cl)o3)C(=O)NC2=S)c1` [Cmpd 27], in assay [1], the inhibition at 3 µM is -9.26%, the inhibition at 10 µM was 0% and the inhibition at 30 µM is -11.6%. In assay [2], the inhibition at 3 µM came to 0.74%, the inhibition at 10 µM stood at 8.82% and the inhibition at 30 µM is -0.74%.
As to `O=C1NC(=S)NC(=O)C1=Cc1ccc(-c2cccc(C(=O)O)c2)o1` [Cmpd 28], in assay [1], the inhibition at 3 µM was -9.26%, the inhibition at 10 µM is -3.09% and the inhibition at 30 µM is -13.1%. Moreover, in assay [2], the inhibition at 3 µM was -0.74%, the inhibition at 10 µM is -2.21% and the inhibition at 30 µM is -3.68%.
In the case of `CN1C(=O)/C(=C/c2ccc(-c3ccc(Br)c(Cl)c3)o2)C(=O)NC1=S` [Cmpd 29], the inhibition at 10 µM turned out to be 80% in assay [1] and 52.9% in assay [2]. For the same compound, the results for the inhibition at 30 µM in assay [1] and in assay [2] were 90.1% and 86.8%, respectively.
Regarding `CCN1C(=O)NC(=O)/C(=C\c2ccc(-c3ccc(Cl)c(C(=O)O)c3)o2)C1=O` [Cmpd 30], in assay [1], the inhibition at 3 µM was -8.49%, the inhibition at 10 µM turned out to be 1% and the inhibition at 30 µM is -11.6%. In addition, in assay [2], the inhibition at 3 µM came out at 1.47%, the inhibition at 10 µM is -2.94% and the inhibition at 30 µM was -4.41%.
With `COc1ccc(-c2ccc(/C=C3/NC(=S)N(C(Cc4ccccc4)C(=O)O)C3=O)s2)cc1` (centres unmarked) [Cmpd 33], in assay [1], the inhibition at 3 µM is -3.85%, the inhibition at 10 µM stood at 0% and the inhibition at 30 µM was determined as 100%. Besides, in assay [2], the inhibition at 3 µM is -2.94%, the inhibition at 10 µM was -13.2% and the inhibition at 30 µM came out at 18.5%.
As for `O=C(O)C(Cc1ccccc1)N1C(=O)/C(=C\c2ccc(-c3ccc(F)cc3)s2)NC1=S` (centres unmarked) [Cmpd 34], in assay [1], the inhibition at 3 µM amounted to 0%, the inhibition at 10 µM worked out at 6.99% and the inhibition at 30 µM came out at 98.8%. In addition, in assay [2], the inhibition at 3 µM is -15.8%, the inhibition at 10 µM was -24.8% and the inhibition at 30 µM stood at 46.2%.
Take `O=C(O)C(Cc1ccccc1)N1C(=O)/C(=C\c2ccc(-c3ccc(Cl)cc3)s2)NC1=S` (centres unmarked) [Cmpd 35]: in assay [1], the inhibition at 3 µM is -5.4%, the inhibition at 10 µM came out at 100% and the inhibition at 30 µM was 100%. In assay [2], the inhibition at 3 µM was -2.94%, the inhibition at 10 µM is -1.47% and the inhibition at 30 µM was found to be 91%.
